Assay results published in ChEMBL document CHEMBL4152237, “Identification of novel β-lactams and pyrrolidinone derivatives as selective Histamine-3 receptor (H3R) modulators as possible anti-obesity agents” (Eur J Med Chem, 2018).
Calls of active or inactive are those of the source. How the calls were made is not given here.

Legend:
Type in all cases: functional, cell-based
Histamine H3 receptor [1] = target: T1, Histamine H3 receptor (Homo sapiens, UniProt Q9Y5N1); assay: Agonist activity at human H3R expressed in HEK293 cells harboring glosensor-22F cAMP plasmid DNA assessed as inhibition of forskolin-stimulated cAMP accumulation preincubated with cells followed by forskolin addition measured after 10 mins by luminescence assay; settings: read-out: EC50
[2] = target: T2, 5-hydroxytryptamine receptor 2C (Homo sapiens) (UniProt P28335); assay: Agonist activity at human 5-HT2C expressed in HEK293 cells harboring luc2P/NFAT-RE plasmid at 10 uM after 6 to 8 hrs by luciferase reporter gene assay
T2 sequence (whole entry): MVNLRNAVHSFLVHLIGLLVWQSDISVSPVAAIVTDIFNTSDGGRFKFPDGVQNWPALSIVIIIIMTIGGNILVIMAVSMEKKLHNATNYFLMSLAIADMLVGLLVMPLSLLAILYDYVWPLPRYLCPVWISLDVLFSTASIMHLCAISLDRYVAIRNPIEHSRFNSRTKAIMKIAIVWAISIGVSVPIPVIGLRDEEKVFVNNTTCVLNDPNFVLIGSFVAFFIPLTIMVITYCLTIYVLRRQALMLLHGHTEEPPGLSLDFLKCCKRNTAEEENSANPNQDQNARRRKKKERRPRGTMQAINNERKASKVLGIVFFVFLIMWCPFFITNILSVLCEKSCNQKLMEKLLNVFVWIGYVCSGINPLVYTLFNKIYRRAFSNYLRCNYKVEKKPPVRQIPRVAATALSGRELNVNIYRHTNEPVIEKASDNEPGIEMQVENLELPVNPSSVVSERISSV

Histamine H3 receptor [3] = target: T1, Histamine H3 receptor; assay: Agonist activity at human H3R expressed in HEK293 cells harboring glosensor-22F cAMP plasmid DNA assessed as inhibition of forskolin-stimulated cAMP accumulation at 10 uM preincubated with cells followed by forskolin addition measured after 10 mins by luminescence assay relative to control

T1 sequence (Q9Y5N1 whole entry): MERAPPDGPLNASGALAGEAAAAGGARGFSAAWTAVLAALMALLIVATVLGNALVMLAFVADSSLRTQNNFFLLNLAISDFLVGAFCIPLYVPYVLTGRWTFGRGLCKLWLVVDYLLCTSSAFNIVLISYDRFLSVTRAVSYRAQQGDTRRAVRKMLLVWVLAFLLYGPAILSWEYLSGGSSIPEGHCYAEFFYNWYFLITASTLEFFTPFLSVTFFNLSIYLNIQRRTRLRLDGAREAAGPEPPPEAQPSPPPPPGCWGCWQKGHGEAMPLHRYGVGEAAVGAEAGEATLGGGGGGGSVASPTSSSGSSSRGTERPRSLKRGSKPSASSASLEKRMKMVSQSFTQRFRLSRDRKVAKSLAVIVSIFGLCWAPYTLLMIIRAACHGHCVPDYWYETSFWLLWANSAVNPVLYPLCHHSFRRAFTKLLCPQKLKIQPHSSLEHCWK

Structure (SMILES): N=C(N)SCCc1cnc[nH]1
- EC50 (Histamine H3 receptor [1]): 0.08 nM

Structure (SMILES): O=C1C=C[C@]23C(c4ccccc4)=CC(=O)N2[C@H](c2cccc(Cl)c2)C(=O)N[C@@H]3C1
- Activity [2]: inactive
- inhibition (Histamine H3 receptor [3]): inactive

Structure (SMILES): COc1ccc(C(C(=O)NC2CCCCC2)N2C(=O)C(I)=C(c3ccccc3)C23C=CC(=O)C=C3)cc1 (configuration not stated)
- Activity [2]: inactive
- inhibition (Histamine H3 receptor [3]): inactive

Structure (SMILES): COc1ccc(N2C(=O)/C(=C\c3ccccc3)C2(C(=O)NC2CCCCC2)c2cc(F)cc(F)c2)cc1OC (configuration not stated)
- Activity [2]: inactive
- inhibition (Histamine H3 receptor [3]): inactive

Structure (SMILES): O=C1C=C[C@]23C(c4ccccc4)=CC(=O)N2[C@H](c2cccc([N+](=O)[O-])c2)C(=O)N[C@@H]3C1
- Activity [2]: inactive
- inhibition (Histamine H3 receptor [3]): inactive

Structure (SMILES): COc1ccc(NC2(c3ccccc3)C(=O)N(C3CCCCC3)C(=O)/C2=C/c2ccccc2)cc1OC (configuration not stated)
- Activity [2]: inactive
- inhibition (Histamine H3 receptor [3]): inactive

Structure (SMILES): COc1ccc(NC2(c3ccc(F)cc3)C(=O)N(C3CCCCC3)C(=O)/C2=C/c2ccccc2)cc1OC (configuration not stated)
- Activity [2]: inactive
- inhibition (Histamine H3 receptor [3]): inactive

Structure (SMILES): Cc1cc(C)cc([C@@H]2C(=O)N[C@@H]3CC(=O)C=C[C@@]34C(c3ccccc3)=CC(=O)N24)c1
- Activity [2]: inactive
- inhibition (Histamine H3 receptor [3]): inactive

Structure (SMILES): O=C1C=C[C@]23C(c4ccccc4)=CC(=O)N2[C@H](c2ccc(F)cc2)C(=O)N[C@@H]3C1
- Activity [2]: inactive
- inhibition (Histamine H3 receptor [3]): inactive

Structure (SMILES): COc1ccc(N2C(=O)C(=Cc3ccccc3)C2(C(=O)NC2CCCCC2)c2ccccc2)cc1OC (configuration not stated)
- Activity [2]: inactive
- inhibition (Histamine H3 receptor [3]): inactive

Structure (SMILES): O=C1C=CC2(C=C1)C(c1ccccc1)=C(I)C(=O)N2C(C(=O)NC1CCCCC1)c1ccccc1Br (configuration not stated)
- Activity [2]: inactive
- inhibition (Histamine H3 receptor [3]): inactive

Structure (SMILES): COc1cc(N2C(=O)C(=Cc3ccccc3)C2(C(=O)NC(C)(C)C)c2ccc(Br)cc2)cc(OC)c1OC (configuration not stated)
- Activity [2]: inactive
- inhibition (Histamine H3 receptor [3]): inactive

Structure (SMILES): COc1cc(OC)c(C(C(=O)NC2CCCCC2)N2C(=O)C(I)=C(c3ccccc3)C23C=CC(=O)C=C3)cc1OC (configuration not stated)
- Activity [2]: inactive
- inhibition (Histamine H3 receptor [3]): inactive

Structure (SMILES): COC1=CC2(C=C(OC)C1=O)C(c1ccccc1)=C(c1ccc(CO)cc1)C(=O)N2C(C(=O)NC1CCCCC1)c1ccc(OC)c(OC)c1OC (configuration not stated)
- Activity [2]: inactive
- inhibition (Histamine H3 receptor [3]): inactive

Structure (SMILES): COc1cc(C(C(=O)NC2CCCCC2)N2C(=O)C(I)=C(c3ccccc3)C23C=CC(=O)C=C3)cc(OC)c1OC (configuration not stated)
- Activity [2]: inactive
- inhibition (Histamine H3 receptor [3]): inactive

Structure (SMILES): CN(C)c1ccc([C@@H]2C(=O)N[C@@H]3CC(=O)C=C[C@@]34C(c3ccccc3)=CC(=O)N24)cc1
- Activity [2]: inactive
- inhibition (Histamine H3 receptor [3]): inactive

Structure (SMILES): COc1ccc(C(C(=O)NC(C)(C)C)N2C(=O)C(I)=C(c3ccccc3)C23C=CC(=O)C=C3)cc1C (configuration not stated)
- Activity [2]: inactive
- inhibition (Histamine H3 receptor [3]): inactive

Structure (SMILES): COC1=CC2(C=C(OC)C1=O)C(c1ccccc1)=C(c1ccc(OC)c(OC)c1OC)C(=O)N2C(C(=O)NC1CCCCC1)c1cc(OC)c(OC)c(OC)c1 (configuration not stated)
- Activity [2]: inactive
- inhibition (Histamine H3 receptor [3]): inactive

Structure (SMILES): COc1ccc(NC2(c3cc(F)c(F)c(F)c3)C(=O)N(C(C)(C)C)C(=O)/C2=C/c2ccccc2)cc1 (configuration not stated)
- Activity [2]: inactive
- inhibition (Histamine H3 receptor [3]): inactive
